These are literature values, as cited in patent US11819508B2 (priority 2020, dated 2023).

Read-outs that look alike come from different tables or passages of the source.

The conditions of data set [1]: in vivo.
The test system of data set [2] is Covid-19. The settings on record: subcutaneous; subjects hospitalized with Covid-19.

On to “2-[[(hexadecyloxy)hydroxyphosphenyl]oxy]-N,N,N-trimethylethylammonium inner salt [Miltefosine]”, for which the solubility result by setting is: (in aqueous solutions) “freely soluble”; (in water or saline solutions) “readily soluble”; (in water, 0.1 N HCl or NaOH, methanol, and ethanol) “freely soluble”. Moreover, the half-life result in data set [1] is “long half-life”.

B1: IFN β-1b: cytokine in the interferon family, subcutaneous (protein, UniProt P01574 22-187, looked up, variant C17S)
Interferon beta: MSYNLLGFLQRSSNFQSQKLLWQLNGRLEYCLKDRMNFDIPEEIKQLQQFQKEDAALTIYEMLQNIFAIFRQDSSSTGWNETIVENLLANVYHQINHLKTVLEEKLEKEDFTRGKLMSSLHLKRYYGRILHYLKAKEYSHCAWTIVRVEILRNFYFINRLTGYLRN
modifications: lacks N-terminal Met1, non-glycosylated
notes: cytokine in the interferon family, subcutaneous
Consider B1, for which, in data set [2], the “clinical improvement as assessed by NEWS 2 and SOFA score and shortened hospital stay” value was “clinical improvement”.
